Measurements published in patent publication US9434763B2, “Derivatives of pyridinone as inhibitors for tissue transglutaminase” (ZEDIRA GMBH, priority 2012, dated 2016).

How the values were obtained:
Type in all cases: biochemical
[1] = target: T1, tissue transglutaminase (TG2) (Homo sapiens, UniProt P21980); assay: Comparative transglutaminase selectivity assay with casein and dansylcadaverine as substrates (kit T036): TG2; conditions: casein as substrate (apparent IC50)
T1 construct: purchased Zedira T036 (kit)
T1 sequence (P21980 1-687): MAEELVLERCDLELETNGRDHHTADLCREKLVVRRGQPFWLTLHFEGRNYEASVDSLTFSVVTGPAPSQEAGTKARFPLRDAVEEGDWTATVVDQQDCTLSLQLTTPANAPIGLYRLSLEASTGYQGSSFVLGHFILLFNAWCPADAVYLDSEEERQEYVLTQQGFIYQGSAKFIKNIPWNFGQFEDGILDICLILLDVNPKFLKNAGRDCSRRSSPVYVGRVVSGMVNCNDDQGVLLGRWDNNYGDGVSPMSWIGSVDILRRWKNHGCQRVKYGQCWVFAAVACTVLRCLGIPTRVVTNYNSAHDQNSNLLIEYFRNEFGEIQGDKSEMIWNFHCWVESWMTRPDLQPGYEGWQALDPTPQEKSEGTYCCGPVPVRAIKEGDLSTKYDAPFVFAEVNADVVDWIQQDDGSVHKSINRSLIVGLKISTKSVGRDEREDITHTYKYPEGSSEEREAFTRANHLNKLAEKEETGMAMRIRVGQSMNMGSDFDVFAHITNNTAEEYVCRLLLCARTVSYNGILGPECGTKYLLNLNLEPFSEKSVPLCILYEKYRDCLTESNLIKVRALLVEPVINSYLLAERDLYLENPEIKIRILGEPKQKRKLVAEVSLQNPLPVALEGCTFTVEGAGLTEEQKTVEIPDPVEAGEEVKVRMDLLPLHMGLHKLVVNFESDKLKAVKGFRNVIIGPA
From the text: (§1) The comparative determination of different transglutaminases to determine the selectivity was made with casein and dansylcadaverine as substrates. Therefore, the kit T036 (Zedira, Darmstadt; Refs: Lorand et al, Anal Biochem, 1971, 44:221-31) as well as transglutaminase products T009 (transglutaminase 1), T012 (transglutaminase 3), T021 (transglutaminase 6) and T027 (plasma transglutaminase, factor XIII) are used. Therefore, two different IC50 values for the compounds are given.
(§2) The evaluation of the resulting enzyme activity is done using the slope of the straight line obtained by the increase in fluorescence.
(§3) To determine the non-inhibited enzyme activity, DMSO instead of inhibitor stock solution is used. IC50 values are determined by plotting the resulting enzyme activity against the logarithm of the inhibitor concentration. IC50 is defined as the concentration of inhibitor resulting in 50% of enzyme activity.
(§4) It should be noted that it was measured here against casein as substrate, which is why other apparent inhibition values (IC50 value) result.

TG6 (transglutaminase 6) = target: T2, TG6 (transglutaminase 6) (Homo sapiens, UniProt O95932); assay: Comparative transglutaminase selectivity assay with casein and dansylcadaverine as substrates: TG6; conditions: casein as substrate
T2 construct: purchased Zedira T021
T2 sequence (O95932 1-706): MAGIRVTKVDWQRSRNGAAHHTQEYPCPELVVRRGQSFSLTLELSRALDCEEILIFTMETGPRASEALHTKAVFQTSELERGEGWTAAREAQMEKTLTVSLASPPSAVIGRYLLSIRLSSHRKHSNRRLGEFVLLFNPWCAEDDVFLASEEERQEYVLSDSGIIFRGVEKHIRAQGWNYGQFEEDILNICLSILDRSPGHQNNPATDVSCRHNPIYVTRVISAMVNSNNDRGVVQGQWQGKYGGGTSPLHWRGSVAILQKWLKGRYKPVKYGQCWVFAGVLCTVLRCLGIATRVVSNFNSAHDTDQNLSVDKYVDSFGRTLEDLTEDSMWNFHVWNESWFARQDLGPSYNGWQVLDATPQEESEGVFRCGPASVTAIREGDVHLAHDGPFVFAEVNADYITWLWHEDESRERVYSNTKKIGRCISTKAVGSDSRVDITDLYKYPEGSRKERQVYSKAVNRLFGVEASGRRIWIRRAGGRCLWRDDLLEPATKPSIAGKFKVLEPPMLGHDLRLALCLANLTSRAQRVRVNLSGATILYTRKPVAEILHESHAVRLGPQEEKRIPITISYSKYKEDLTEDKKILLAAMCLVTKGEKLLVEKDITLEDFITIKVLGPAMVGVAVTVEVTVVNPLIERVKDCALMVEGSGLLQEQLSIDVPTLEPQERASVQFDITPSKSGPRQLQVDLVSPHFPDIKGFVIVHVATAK
From the text: as §1, §2, §3, §4

[2] = target: T3, FXIII (plasma transglutaminase, factor XIII) (Homo sapiens, UniProt P00488); assay: Comparative transglutaminase selectivity assay with casein and dansylcadaverine as substrates: FXIII; conditions: casein as substrate
T3 construct: purchased Zedira T027
T3 sequence (P00488 1-732): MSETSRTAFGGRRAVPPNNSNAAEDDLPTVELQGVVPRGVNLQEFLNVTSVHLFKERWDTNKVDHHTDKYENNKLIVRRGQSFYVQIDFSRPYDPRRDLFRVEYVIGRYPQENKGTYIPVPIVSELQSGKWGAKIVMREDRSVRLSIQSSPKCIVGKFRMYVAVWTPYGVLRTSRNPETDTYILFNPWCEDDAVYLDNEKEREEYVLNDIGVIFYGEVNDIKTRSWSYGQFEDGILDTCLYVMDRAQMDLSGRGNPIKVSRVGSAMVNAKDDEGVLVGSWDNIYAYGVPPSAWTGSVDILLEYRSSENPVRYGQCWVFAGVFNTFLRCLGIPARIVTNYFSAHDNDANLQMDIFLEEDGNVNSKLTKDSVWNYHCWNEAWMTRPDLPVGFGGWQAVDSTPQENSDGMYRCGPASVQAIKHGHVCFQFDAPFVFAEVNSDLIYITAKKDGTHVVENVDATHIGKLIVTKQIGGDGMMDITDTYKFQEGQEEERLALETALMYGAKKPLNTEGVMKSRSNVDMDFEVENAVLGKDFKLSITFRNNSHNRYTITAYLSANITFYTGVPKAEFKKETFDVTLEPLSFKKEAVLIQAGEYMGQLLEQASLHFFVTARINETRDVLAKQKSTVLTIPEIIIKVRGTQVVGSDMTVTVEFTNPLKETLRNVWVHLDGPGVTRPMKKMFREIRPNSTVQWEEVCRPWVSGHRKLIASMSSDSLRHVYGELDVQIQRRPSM
From the text: as §1, §2, §3, §4

IC50 [1]	IC50 (TG6 (transglutaminase 6))	IC50 [2]	Compound
2900 nM	37.7 µM	156 µM	COC(=O)/C=C/CC[C@H](NC(C)=O)C(=O)Nc1cccn(CC(=O)N2CCC(C(F)(F)F)CC2)c1=O [A65, (S,E)-Methyl 6-acetamido-7-oxo-7-(2-oxo-1-(2-oxo-2-(4-(trifluoromethyl)piperidin-1-yl)ethyl)-1,2-dihydropyridin-3-ylamino)hept-2-enoate]
397 nM	47.8 µM	78.2 µM	CCC(CC)CNC(=O)Cn1cccc(NC(=O)[C@H](CC/C=C/C(=O)OC)NC(C)=O)c1=O [A79, (S,E)-Methyl 6-acetamido-7-(1-(2-(2-ethylbutylamino)-2-oxoethyl)-2-oxo-1,2-dihydropyridin-3-ylamino)-7-oxohept-2-enoate]
